# In patent US9902702B2, “Spirocycloheptanes as inhibitors of rock” (BRISTOL-MYERS SQUIBB COMPANY, priority 2014, dated 2018):
# Target: ROCK2 (Homo sapiens, UniProt O75116)
# Assay: ROCK assay: phosphorylation of FITC peptide substrate, LABCHIP 3000 mobility shift
# Type: biochemical
# Settings: 5 μM ATP, 1.5 μM peptide substrate; read-out: ROCK2 Activity (ROCK IC50 range)
# Method: The effectiveness of compounds of the present invention as ROCK inhibitors can be determined in a 30 μL assay containing 20 mM HEPES, pH 7.5, 20 mM MgCl2, 0.015% Brij-35, 4 mM DTT, 5 μM ATP and 1.5 μM peptide substrate (FITC-AHA-AKRRRLSSLRA-OH). Compounds were dissolved in DMSO so that the final concentration of DMSO was <2%, and the reaction was initiated with Rho kinase variants. After incubation, the reaction was terminated by the addition of EDTA and the phosphorylated and non-phosphorylated peptides separated using a LABCHIP® 3000 Reader (Caliper Life Sciences). […] Compounds were tested in dose-response format, and the inhibition of kinase activity was calculated at each concentration of compound. The inhibition data were fit using a curve-fitting program to determine the IC50; i.e., the concentration of compound required to inhibit 50% of kinase activity.
# Representative Examples were tested in the ROCK assay described above and found having ROCK inhibitory activity.
# Chain of ROCK2 (O75116 whole entry, species assumed): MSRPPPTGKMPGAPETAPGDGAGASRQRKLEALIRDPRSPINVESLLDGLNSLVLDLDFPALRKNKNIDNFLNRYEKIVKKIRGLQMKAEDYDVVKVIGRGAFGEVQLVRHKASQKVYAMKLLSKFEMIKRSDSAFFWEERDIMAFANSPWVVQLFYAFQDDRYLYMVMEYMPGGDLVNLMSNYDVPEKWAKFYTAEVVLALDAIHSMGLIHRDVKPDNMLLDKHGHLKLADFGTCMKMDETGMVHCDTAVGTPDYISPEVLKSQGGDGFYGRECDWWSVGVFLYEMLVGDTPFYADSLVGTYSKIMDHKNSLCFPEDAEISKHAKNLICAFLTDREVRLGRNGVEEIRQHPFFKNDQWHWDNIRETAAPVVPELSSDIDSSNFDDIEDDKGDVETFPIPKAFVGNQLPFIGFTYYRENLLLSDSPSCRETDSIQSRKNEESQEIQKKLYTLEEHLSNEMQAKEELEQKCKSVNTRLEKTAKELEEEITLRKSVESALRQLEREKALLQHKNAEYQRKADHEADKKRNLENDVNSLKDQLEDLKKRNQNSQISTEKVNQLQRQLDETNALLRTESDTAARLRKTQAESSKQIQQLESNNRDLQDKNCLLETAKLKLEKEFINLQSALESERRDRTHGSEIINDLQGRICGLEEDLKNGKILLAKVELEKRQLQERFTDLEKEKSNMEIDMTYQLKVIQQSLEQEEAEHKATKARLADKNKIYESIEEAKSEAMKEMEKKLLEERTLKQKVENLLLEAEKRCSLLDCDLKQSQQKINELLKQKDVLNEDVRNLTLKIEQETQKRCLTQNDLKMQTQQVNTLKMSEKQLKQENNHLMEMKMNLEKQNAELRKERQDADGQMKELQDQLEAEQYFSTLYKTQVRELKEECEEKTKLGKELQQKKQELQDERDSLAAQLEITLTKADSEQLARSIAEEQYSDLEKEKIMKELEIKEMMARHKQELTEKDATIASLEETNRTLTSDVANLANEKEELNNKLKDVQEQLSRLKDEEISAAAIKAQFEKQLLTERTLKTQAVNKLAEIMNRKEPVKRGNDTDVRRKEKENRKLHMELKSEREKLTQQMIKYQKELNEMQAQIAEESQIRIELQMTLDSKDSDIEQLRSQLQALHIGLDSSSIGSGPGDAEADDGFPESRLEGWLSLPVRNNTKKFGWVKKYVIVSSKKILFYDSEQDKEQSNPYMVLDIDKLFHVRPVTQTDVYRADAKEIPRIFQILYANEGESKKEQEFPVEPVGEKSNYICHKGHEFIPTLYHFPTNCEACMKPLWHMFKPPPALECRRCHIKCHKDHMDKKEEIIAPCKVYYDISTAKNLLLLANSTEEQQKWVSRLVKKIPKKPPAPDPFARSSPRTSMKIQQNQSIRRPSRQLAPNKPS
row,IC50 [nM],SMILES
1,5.1 to 15,"CN(C)Cc1ccc2c(C(=O)NC3CC4(C3)CC(c3n[nH]c(=O)c5ccccc35)C4)cnn2c1 [Example 203, 6-((dimethylamino)methyl)-N-((aR)-6-(4-oxo-3,4-dihydrophthalazin-1-yl)spiro[3.3]heptan-2-yl)pyrazolo[1,5-a]pyridine-3-carboxamide]"
2,15.1 to 100,"O=C(CC1CC2(C1)CC(c1n[nH]c(=O)c3ccccc13)C2)N1CCc2ccccc21 (centres unmarked) [Example 52, 4-(6-(2-(Indolin-1-yl)-2-oxoethyl)spiro[3.3]heptan-2-yl)phthalazin-1(2H)-one]"
3,0.2 to 2,"O=C(NC1CC2(C1)CC(c1n[nH]c(=O)c3ccccc13)C2)c1cnn2cc(OCc3ccccc3)ccc12 [Example 99, 6-(benzyloxy)-N-((aR)-6-(4-oxo-3,4-dihydrophthalazin-1-yl)spiro[3.3]heptan-2-yl)pyrazolo[1,5-a]pyridine-3-carboxamide]"
4,100 to 2100,"O=C(NC1CC2(C1)CC(c1n[nH]c(=O)c3ccccc13)C2)C1Cc2ccccc2C1 (centres unmarked) [Example 1, N-[6-(4-oxo-3,4-dihydrophthalazin-1-yl)spiro[3.3]heptan-2-yl]-2,3-dihydro-1H-indene-2-carboxamide]"
5,100 to 2100,"Cn1nc(C(=O)N[C@H]2CC3(C2)C[C@H](c2n[nH]c(=O)c4ccccc42)C3)c2ccccc21 (single isomer, unassigned) [Example 17]"
6,0.2 to 2,"O=C(NC1CC2(C1)CC(c1n[nH]c(=O)c3ccccc13)C2)c1cnn2cc(-c3cnn(C4CCOC4)c3)ccc12 [Example 226, N-((aR)-6-(4-oxo-3,4-dihydrophthalazin-1-yl)spiro[3.3]heptan-2-yl)-6-(1-(tetrahydrofuran-3-yl)-1H-pyrazol-4-yl)pyrazolo[1,5-a]pyridine-3-carboxamide]"
7,0.2 to 2,"O=C(NC1CC2(C1)CC(c1n[nH]c(=O)c3ccccc13)C2)c1cnn2cc(N3CCC(F)C3)ccc12 [Example 89, 6-((S)-3-fluoropyrrolidin-1-yl)-N-((aR)-6-(4-oxo-3,4-dihydrophthalazin-1-yl)spiro[3.3]heptan-2-yl)pyrazolo[1,5-a]pyridine-3-carboxamide]"
8,5.1 to 15,"O=C(N[C@H]1CC2(C1)C[C@H](c1n[nH]c(=O)c3ccccc31)C2)c1cc2ccccn2n1 (stereo partly drawn) [Example 325, N-((aR)-6-(4-oxo-3,4-dihydrophthalazin-1-yl)spiro[3.3]heptan-2-yl)pyrazolo[1,5-a]pyridine-2-carboxamide]"
9,0.2 to 2,[H][C@]1(c2n[nH]c(=O)c3ccccc32)C[C@]2(C[C@@H](NC(=O)c3cnc4cc(-c5cnn(C6CCOCC6)c5)ccn34)C2)C1 (some centres unmarked) [Example 443]
10,5.1 to 15,"O=C(NC1CC2(C1)CC(c1n[nH]c(=O)c3ccccc13)C2)c1cnn2cc(CN3CCCCC3)ccc12 [Example 202, N-((aR)-6-(4-oxo-3,4-dihydrophthalazin-1-yl)spiro[3.3]heptan-2-yl)-6-(piperidin-1-ylmethyl)pyrazolo[1,5-a]pyridine-3-carboxamide]"
11,5.1 to 15,"CC(C)(O)Cn1nc(C(=O)NC2CC3(C2)CC(c2n[nH]c(=O)c4ccccc24)C3)c2ccc(-c3ccc(Cl)cc3)cc21 (centres unmarked) [Example 144, 6-(4-chlorophenyl)-1-(2-hydroxy-2-methylpropyl)-N-((αR)-6-(4-oxo-3,4-dihydrophthalazin-1-yl)spiro[3.3]heptan-2-yl)-1H-indazole-3-carboxamide]"
12,100 to 2100,"[H][C@]1(c2n[nH]c(=O)c3ccccc32)C[C@]2(C[C@@H](NC(=O)c3cnc(O)c(Cl)c3)C2)C1 (stereo partly drawn) [Example 347, 5-chloro-6-hydroxy-N-((aR)-6-(4-oxo-3,4-dihydrophthalazin-1-yl)spiro[3.3]heptan-2-yl)nicotinamide]"
13,0.2 to 2,"[H][C@]1(c2n[nH]c(=O)c3ccccc32)C[C@]2(C[C@@H](NC(=O)c3cnc4cc(Oc5ccccn5)ccn34)C2)C1 (stereo partly drawn) [Example 434, N-((aR)-6-(4-oxo-3,4-dihydrophthalazin-1-yl)spiro[3.3]heptan-2-yl)-7-(pyridin-2-yloxy)imidazo[1,2-a]pyridine-3-carboxamidc]"
14,5.1 to 15,"COc1ccc2c(c1)CCN2C(=O)NC1CC2(C1)CC(c1n[nH]c(=O)c3ccccc13)C2 [Example 258, 5-methoxy-N-((aR)-6-(4-oxo-3,4-dihydrophthalazin-1-yl)spiro[3.3]heptan-2-yl)indoline-1-carboxamide]"
15,2.01 to 5,"Cn1cc(-c2ccc3c(c2)CCN3C(=O)NC2CC3(C2)CC(c2n[nH]c(=O)c4ccccc24)C3)c(C(F)(F)F)n1 [Example 238, 5-(1-methyl-3-(trifluoromethyl)-1H-pyrazol-4-yl)-N-((aR)-6-(4-oxo-3,4-dihydrophthalazin-1-yl)spiro[3.3]heptan-2-yl)indoline-1-carboxamide]"
16,2.01 to 5,"Cn1nccc1-c1ccc2c(C(=O)NC3CC4(C3)CC(c3n[nH]c(=O)c5ccccc35)C4)nn(CC(C)(C)O)c2c1 (centres unmarked) [Example 146, 1-(2-hydroxy-2-methylpropyl)-6-(1-methyl-1H-pyrazol-5-yl)-N-((αR)-6-(4-oxo-3,4-dihydrophthalazin-1-yl)spiro[3.3]heptan-2-yl)-1H-indazole-3-carboxamide]"
17,5.1 to 15,"CC(C)(O)Cn1nc(C(=O)NC2CC3(C2)CC(c2n[nH]c(=O)c4ccccc24)C3)c2ccc(-c3cnoc3)cc21 (centres unmarked) [Example 161, 1-(2-hydroxy-2-methylpropyl)-6-(isoxazol-4-yl)-N-((αR)-6-(4-oxo-3,4-dihydrophthalazin-1-yl)psiro[3.3]heptan-2-yl)-1H-indazole-3-carboxamide]"
18,5.1 to 15,"CC(C)(O)Cn1nc(C(=O)NC2CC3(C2)CC(c2n[nH]c(=O)c4ccccc24)C3)c2ccc(C=CC3CC3)cc21 (centres unmarked) [Example 149, 6-((E)-2-cyclopropylvinyl)-1-(2-hydroxy-2-methylpropyl)-N-((αR)-6-(4-oxo-3,4-dihydrophthalazin-1-yl)spiro[3.3]heptan-2-yl)-1H-indazole-3-carboxamide]"
19,5.1 to 15,"O=C(NC1CC2(C1)CC(c1n[nH]c(=O)c3ccccc13)C2)c1cnn2cc(-n3ccccc3=O)ccc12 (stereo not drawn) [Example 169, N-((αR)-6-(4-oxo-3,4-dihydrophthalazin-1-yl)spiro[3.3]heptan-2-yl)-6-(2-oxopyridin-1(2H)-yl)pyrazolo[1,5-α]pyridine-3-carboxamide]"
20,2.01 to 5,"O=C(NC1CC2(C1)CC(c1n[nH]c(=O)c3ccccc13)C2)c1cnn2cc(CCCN3CCCC3)ccc12 [Example 192, N-((aR)-6-(4-oxo-3,4-dihydrophthalazin-1-yl)spiro[3.3]heptan-2-yl)-6-(3-(pyrrolidin-1-yl)propyl)pyrazolo[1,5-a]pyridine-3-carboxamide]"
21,15.1 to 100,"[H][C@]1(c2n[nH]c(=O)c3ccccc32)C[C@]2(C[C@@H](NC(=O)c3[nH]c4c(OC)cccc4c3C)C2)C1 (stereo partly drawn) [Example 372, 7-methoxy-3-methyl-N-((aR)-6-(4-oxo-3,4-dihydrophthalazin-1-yl)spiro[3.3]heptan-2-yl)-1H-indole-2-carboxamide]"
22,15.1 to 100,"[H][C@]1(c2n[nH]c(=O)c3ccccc32)C[C@]2(C[C@@H](NC(=O)c3cnc4ccc(F)c(C)n34)C2)C1 (stereo partly drawn) [Example 407, 6-fluoro-5-methyl-N-((aR)-6-(4-oxo-3,4-dihydrophthalazin-1-yl)spiro[3.3]heptan-2-yl)imidazo[1,2-a]pyridine-3-carboxamide]"
23,2.01 to 5,"O=C(NC1CC2(C1)CC(c1n[nH]c(=O)c3ccccc13)C2)c1cnc(N2CCOCC2)s1 [Example 69, 2-morpholino-N-((aR)-6-(4-oxo-3,4-dihydrophthalazin-1-yl)spiro[3.3]heptan-2-yl)thiazole-5-carboxamide]"
24,100 to 2100,"O=C(N[C@H]1CC2(C1)C[C@H](c1n[nH]c(=O)c3ccccc31)C2)N1CC2(CCNCC2)c2ccccc21 (stereo partly drawn) [Example 265, N-((aR)-6-(4-oxo-3,4-dihydrophthalazin-1-yl)spiro[3.3]heptan-2-yl)spiro[indoline-3,4′-piperidine]-1-carboxamide]"
25,15.1 to 100,"COc1ccc(-n2nc(C(=O)NC3CC4(C3)CC(c3n[nH]c(=O)c5ccccc35)C4)c3c2C(=O)NCC3)cc1 [Example 289, 1-(4-methoxyphenyl)-7-oxo-N-((aR)-6-(4-oxo-3,4-dihydrophthalazin-1-yl)spiro[3.3]heptan-2-yl)-4,5,6,7-tetrahydro-1H-pyrazolo[3,4-c]pyridine-3-carboxamide]"
26,5.1 to 15,"O=C(NC1CC2(C1)CC(c1n[nH]c(=O)c3ccccc13)C2)N1CCc2ccc(C(F)(F)F)cc21 [Example 259, N-((aR)-6-(4-oxo-3,4-dihydrophthalazin-1-yl)spiro[3.3]heptan-2-yl)-6-(trifluoromethyl)indoline-1-carboxamide]"
27,2.01 to 5,"O=C(NC1CC2(C1)CC(c1n[nH]c(=O)c3ccccc13)C2)N1CCc2cc(-c3cnn(C4CCOCC4)c3)ccc21 [Example 240, N-((aR)-6-(4-oxo-3,4-dihydrophthalazin-1-yl)spiro[3.3]heptan-2-yl)-5-(1-(tetrahydro-2H-pyran-4-yl)-1H-pyrazol-4-yl)indoline-1-carboxamide]"
28,0.2 to 2,"O=C(NC1CC2(C1)CC(c1n[nH]c(=O)c3ccccc13)C2)c1cnn2cc(-c3cnn(C(F)F)c3)ccc12 (stereo not drawn) [Example 167, 6-(1-(difluoromethyl)-1H-pyrazol-4-yl)-N-((αR)-6-(4-oxo-3,4-dihydrophthalazin-1-yl)spiro[3.3]heptan-2-yl)pyrazolo[1,5-α]pyridine-3-carboxamide]"

row,SMILES,IC50 [nM]
1,"O=C(NC1CC2(C1)CC(c1n[nH]c(=O)c3ccccc13)C2)c1cnn2cc(OCCN3CCC(F)(F)C3)ccc12 [Example 185, 6-(2-(3,3-difluoropyrrolidin-1-yl)ethoxy)-N-((aR)-6-(4-oxo-3,4-dihydrophthalazin-1-yl)spiro[3.3]heptan-2-yl)pyrazolo[1,5-a]pyridine-3-carboxamide]",0.2 to 2
